Results from patent US7416840B2, “Replication of hepatitis C virus in non-hepatic epithelial and mouse hepatic cells” (priority 2002, dated 2008).
Entries after “also recorded” stand apart in the source; their conditions may differ. Read-outs that look alike come from different tables or passages of the source.

Experiments:
[1] = system: IFN-α response against the HCV replicon; format: cell-based, human; settings: for viral RNA levels versus cells treated with IFN-α alone: 5 μM lactacystin or 1 μM epoxomicin 1 h before IFN-α for 6 h, both time points; for IFN response against HCV when inhibitor is added after induction: IFN-α for 10 h, then inhibitor for 12 h; for reduction of HCV RNA levels by IFN-α in the presence of proteasome inhibitor: inhibitor 1 h before IFN-α 100 IU/ml for 6 h, then 12 h
Mx-1 gene = format: cell-based, human; settings: GS4.1 cells, with IFN-α
HCV subgenomic replicons [2] = format: cell-based
HCV subgenomic replicons [3] = format: cell-based; remark: listed apart in the source
SL1 cells = format: cell-based, Homo sapiens (human)
HCV = HCV genotypes 2 and 3; cited from earlier work
Kunjin virus replicons = format: cell-based; settings: KUNCD20 cells, 0.01 to 160 IU of IFN-α/ml, 72 h
eIF-2α = format: cell-based, human; settings: Huh7, GS4.1, HeLa, SL1 cells; 100 IU of IFN-α/ml 12 h; poly(I:C) transfection 3 h
IFN-β gene = format: cell-based, human; settings: for expression of IFN-β: IFN-α alone
KUNCD20 cells = experiment: Cell death in IFN-α-treated KUNCD20 cells, light microscopy or annexin V staining; format: cell-based, Homo sapiens (human)
Excerpt: To address this problem, the IFN response against HCV in SL1 cells was compared with that against the flavivirus Kunjin virus in HeLa cells. For this purpose a pool of HeLa cells, KUNCD20, expressing Kunjin virus subgenomic replicons lacking the structural genes, similar to the HCV subgenomic replicons was established (Khromykh, A. A., and E. G. Westaway. 1997. J. Virol. 71:1497-1505). The Kunjin virus RNA levels in these cells were approximately fivefold higher than those observed with HCV in SL1 cells. […] Importantly, cell death in IFN-α-treated KUNCD20 cells was not detected either by light microscopy or annexin V staining (results not shown).

Q: Which “inhibition of the IFN-α response against HCV replicon” value (“inhibition of the IFN-α response” below) ([1]; GS4.1 (Huh7) cells) does the source give for `O=c1c(-c2ccc(O)cc2)coc2cc(O)cc(O)c12` [Genistein, genistein] here?
A: The value was “antagonized the IFN-α response against the HCV replicon”.

Q: And the “inhibition of the IFN response against HCV at increased drug concentration” value ([1]; GS4.1 cells, concentration raised from 100 to 300 μM)?
A: The value was “complete inhibition of the IFN response against HCV”.

Q: And the “induction of IFN-induced Mx-1 (Mx-A) mRNA” value (“induction … (Mx-A) mRNA” below) (Mx-1 gene)?
A: The value was “suppressed the induction of the IFN-induced Mx-1 gene”.

Q: Which “HCV RNA levels, drug alone” value (HCV subgenomic replicons [2]; GS4.1 cells, higher doses, without IFN-α) does the source give for `CC(=O)N[C@@H](CSC(=O)[C@]1([C@@H](O)C(C)C)NC(=O)[C@H](C)[C@@H]1O)C(=O)O` [Lactacystin, lactacystin] here?
A: The value was “slight reduction of HCV RNA levels”.

Q: And the “viral RNA levels versus cells treated with IFN-α alone” value ([1]; GS4.1 cells)?
A: Its value is “significantly higher”.

Q: What about the “IFN response against HCV when inhibitor is added after induction” value ([1]; GS4.1 cells) of the same compound?
A: Its value is “the IFN response against HCV remained effective”.

Q: And the “reduction of HCV RNA levels by IFN-α in the presence of proteasome inhibitor” value ([1]; GS4.1 cells)?
A: Its value is 30%.

Q: And the “induction … (Mx-A) mRNA” value (Mx-1 gene)?
A: Its value is “did not inhibit induction of Mx-A”.

Q: For `C[S+]([O-])c1ccc(-c2nc(-c3ccncc3)c(-c3ccc(F)cc3)[nH]2)cc1` (stereo not shown) [SB 203580], which “inhibition of the IFN-α response” value ([1]; GS4.1 (Huh7) cells) is on record?
A: Its value is “did not inhibit the IFN response at detectable levels”.

Q: What does the source list for `Nc1ncc2[nH]cnc2n1` [2-AP, 2-aminopurine]?
A: inhibition of the IFN-α response against HCV replicon ([1]; GS4.1 (Huh7) cells): did not block the IFN response against HCV; also recorded: no measurable effect on the IFN response against the HCV replicon; apoptosis (HeLa cells; HeLa cells, treatment for more than 12 h): induced apoptosis

Q: For `Nc1nc(=O)n([C@@H]2O[C@H](CO)[C@@H](O)[C@H]2O)cc1O` [5-OH-cytidine], which “HCV RNA band intensity, antiviral activity” value (HCV subgenomic replicons [2]; GS4.1 (Huh7) cells, indicated amounts, 72 hours) is on record?
A: The value was “effectively inhibits HCV replication”.

Q: And the “HCV RNA band intensity, antiviral activity” value (HCV subgenomic replicons [3]; SL1 (HeLa) cells, indicated amounts, 72 hours)?
A: The value was “effectively inhibits HCV replication”.

Q: Which results are given for `C[C@@]1(O)[C@H](O)[C@@H](CO)O[C@H]1n1cnc2c(N)ncnc21` [2CMA, 2′-C-methyladenosine]?
A: viral RNA (vRNA), anti-HCV activity (HCV subgenomic replicons [2]; GS4.1 (Huh7) cells, 10 μM, harvested at 6, 12, 24, 48, 72 hours): effectively inhibits HCV; viral RNA (vRNA), anti-HCV activity (HCV subgenomic replicons [3]; SL1 (HeLa) cells, 10 μM, harvested at 6, 12, 24, 48, 72 hours): effectively inhibits HCV

Q: For `CC[C@H](C)[C@H](NC(=O)[C@H]([C@@H](C)CC)N(C)C(C)=O)C(=O)N[C@H](C(=O)N[C@@H](CC(C)C)C(=O)[C@@]1(C)CO1)[C@@H](C)O` [Epoxomicin], which “viral RNA levels versus cells treated with IFN-α alone” value ([1]; GS4.1 cells) is on record?
A: Its value is “significantly higher”.

Q: What about the “IFN response against HCV when inhibitor is added after induction” value ([1]; GS4.1 cells) of the same compound?
A: The value was “the IFN response against HCV remained effective”.

Q: What about the “reduction of HCV RNA levels by IFN-α in the presence of proteasome inhibitor” value ([1]; GS4.1 cells) of the same compound?
A: The value was 30%.

Q: What about the “induction … (Mx-A) mRNA” value (Mx-1 gene) of the same compound?
A: Its value is “did not inhibit induction of Mx-A”.

Q: For ZVAD-fluoromethyl ketone [ZVAD-FMK], which “prevention of IFN-α-induced cell death (apoptosis)” value (SL1 cells; SL1 cells, 100 IU of IFN-α/ml with 20 μM ZVAD-FMK) is on record?
A: Its value is “could be prevented”.

Q: With `O=C([O-])c1ccccc1O.[Na+]` [Sodium salicylate, sodium salicylate] as the compound, how does the “inhibition of the IFN-α response” value [1] read?
A: Its value is “did not inhibit the IFN response at detectable levels”.

Q: Which results are given for IFN-α?
A: cell death (SL1 cells; SL1 and other HeLa derived cell lines, more than 30 IU of IFN-α/ml, between 6 and 20 h post treatment): induced cell death in a significant fraction of cells; fraction of apoptotic cells (annexin V-FITC positive) (SL1 cells; SL1 cells, 100 IU of IFN-α/ml, 24 h, flow cytometry): more than 30%; drop of HCV RNA levels (HCV subgenomic replicons [2]; GS4.1 cells, IFN-α 100 IU/ml for 6 h, within 18 h): 70%; response to IFN-α therapy (HCV): ≤ 80%; Kunjin virus replicon RNA, inhibition of viral replication (Kunjin virus replicons): only slightly inhibited viral replication; eIF-2α-P levels (eIF-2α): did not induce eIF-2α-P levels; expression of IFN-β (IFN-β gene; HeLa cells): not in HeLa cells; expression of IFN-β (IFN-β gene; SL1 cells): could be induced; apoptosis after IFN-α treatment (HeLa cells; normal HeLa cells): did not undergo apoptosis; IC50 of IFN-α (reduction of virus replication) (HCV subgenomic replicons [3]; HeLa cell lines such as SL1, 72 h): ~0.1 IU/ml; fold lower IC50 in HeLa cell lines than in Huh7-derived cell lines (HCV subgenomic replicons [3]; HeLa vs Huh7-derived cell lines): approximately 10 fold; cell death (KUNCD20 cells): not detected

Q: Which “inhibition of the IFN-α response” value ([1]; GS4.1 (Huh7) cells) does the source give for `C[C@@H]1C[C@@H]([C@H](O)CC2CC(=O)NC(=O)C2)C(=O)[C@@H](C)C1` [Cycloheximide] here?
A: Its value is “decline of viral RNA levels was reduced”.

Q: Which results are given for poly(I:C)?
A: eIF-2α-P levels (eIF-2α): augmented eIF-2α-P levels; IFN-β transcription (IFN-β gene; HeLa and SL1 cells, poly(I:C) alone): induced; induction of IFN-β mRNA (IFN-β gene; Huh7, GS4.1 and other Huh7-derived cells, primed with IFN-α then transfected with poly(I:C)): only a weak induction of IFN-β was observed
